Source: US7601739B2, “Compounds having antiestrogenic and tissue selective estrogenic properties, and compounds with anti-androgenic properties for treatment of prostate cancer and androgen receptor dependent diseases” (Virgina Commonwealth University, priority 2006, dated 2009)

Assays:
hER = experiment: Fluorescence-based competitive binding assay for hER (displacement of fluormone ES2); parameters: species or system human; settings: RBA = IC50 of tamoxifen/IC50 of test molecule; tamoxifen set at 1
Method: The estrogen receptor competitor assay kits (Panvera, Madison, Wis.) were used to determine the ability of test molecules to displace the fluormone, ES2, from hER -ES2 or hER -ES2 complex. Serial dilutions of each test molecule were prepared in methanol or DMSO. The recombinant hER or hER (7 nM) was preincubated with ES2 (1 nM) in screening buffer. After the preincubation, the test molecules and ER-ES2 complex solution were added into the 96-well microplate to produce a final volume of 100 μl per well. The reaction was incubated at room temperature for 1 hr and the polarization values were measured by using fluorescence microplate reader, Polarion (Tecan, Research Triangle Park, N.C.) with excitation wavelength 495 nm and emission wavelength 535 nm. The polarization value versus test molecule concentration curves was analyzed by graphfit software to generate IC50 values.
In this assay, recombinant hER and the commercial synthetic estrogen, ES2 containing fluorescence polarization property, are used. This assay is a homogenous assay. When the assay solution only contains ES2, the solution exerts weak fluorescence polarization property due to the quick rotation of free ES2 molecule. […] Addition of the antiestrogen to the ES2/hER displaces ES2 from hER and results in the whole solution exerting less fluorescence polarization property than the solution without antiestrogen.

hERα = biological target: T1, hERα (Homo sapiens, UniProt P03372); experiment: Transient transfection reporter assay for hERα in MCF-7 cells; type: cell-based; parameters: Relative Estrogenic Activity: dose or concentration left out as unconfirmed; settings: for Relative Estrogenic Activity: MCF-7 cells transfected with hERα, DMSO set as 1; for estrogenic effect: compared with DMSO and tamoxifen; for Relative Antiestrogenic Activity at 2.5 μM: with 1 nM estradiol, 1 nM E2 used as reference (1)
T1 construct: mammalian expression plasmid containing full length human ER cDNA, pCMV-hER; expressed in transfected cells; host or cells: MCF-7 human breast cancer cells
T1 sequence (P03372 1-595): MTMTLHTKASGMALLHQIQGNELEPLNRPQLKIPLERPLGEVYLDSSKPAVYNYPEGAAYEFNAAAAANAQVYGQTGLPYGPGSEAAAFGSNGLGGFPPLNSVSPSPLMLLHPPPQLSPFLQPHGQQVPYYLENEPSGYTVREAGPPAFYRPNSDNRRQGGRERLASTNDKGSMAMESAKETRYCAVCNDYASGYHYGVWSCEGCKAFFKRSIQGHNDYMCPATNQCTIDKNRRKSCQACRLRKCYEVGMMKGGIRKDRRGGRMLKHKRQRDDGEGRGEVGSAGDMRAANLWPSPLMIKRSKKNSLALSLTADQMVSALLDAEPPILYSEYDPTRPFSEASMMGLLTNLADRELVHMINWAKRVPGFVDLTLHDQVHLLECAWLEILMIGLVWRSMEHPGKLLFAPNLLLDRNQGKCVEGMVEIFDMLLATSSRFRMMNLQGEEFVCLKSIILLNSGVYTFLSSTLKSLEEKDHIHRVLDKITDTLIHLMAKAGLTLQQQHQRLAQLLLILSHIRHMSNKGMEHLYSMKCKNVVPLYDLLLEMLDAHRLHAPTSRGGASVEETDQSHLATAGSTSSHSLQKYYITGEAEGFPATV
Method: For the transient transfection reporter assays, the cells were plated in triplicate in 12-well plates at a density of 300000 cells/well in the phenol red-free DMEM (GIBCO/BRL, Grand Island, N.Y.) supplemented with 10% charcoal-stripped fetal bovine serum (Hyclone, Logan, Utah), Penicillin (100 unit/ml)/Streptomycin ([…]), 2 mML-glutamine and 1 mM sodium Pyruvate. 24 hrs later, the cells were transfected with three plasmids by using Superfect transfection kit (Qiagen, Valencia, Calif.). For the detection of hER activity, cells were transfected with 2 g hER expression plasmid (pCMV-ER ), 6 g luciferase reporter plasmid containing estrogen receptor response element (PGL-TATA-Luc), and 600 ng normalization control, β-galactosidase reporter plasmid (pCMV ). For the detection of hER activity, cells were transfected with 3 ug hER expression plasmid (pcDNA3.1-hER), 6 g luciferase reporter plasmid containing estrogen receptor response element (PGL-TATA-Luc), and 600 ng pCMV. For determining the influence of ER's major coactivator in breast, AIB 1, 2 g pcDNA3.1-AIB1 was added into the transfection plasmid solution mentioned previously.
The transfected cells were rinsed with PBS and treated with various concentrations of test molecules and one […] (vehicle, DMSO or methanol) in phenol red-free culture medium. After incubation for further 24 hrs, the cells were washed with PBS and lysed with lysis buffer (Pierce, Rockford, Ill.). The lysate was used to determine the luciferase activity for ER's activity and the β-galactosidase activity for the normalization of transfection efficiency.
For the luciferase activity assay, 20 μl of lysate and 100 μl luciferase assay buffer (Promega, Madison, Wis.) were added into a well of 96-well plate. The luminescence was detected by using luminescence microplate reader, LumiCount (Packard, Boston, Mass.). For the β-galactosidase activity assay, […] β-galactosidase assay buffer (Clontech, Palo Alto, Calif.) were added into a well of 96-well plate. The β-galactosidase activity was measured as luminescence strength by using luminescence microplate reader, LumiCount (Packard, Boston, Mass.). The normalized reporter activity was calculated by the luciferase activity divided by that of β-galactosidase.
The transient transfection reporter assay was used to determine the estrogenic or antiestrogenic activity of tested compounds in employed human breast cancer cells, MCF-7 cells that are cotransfected with hERα expression and reporter plasmids. […] […] The estrogenic (antiestrogenic) activity was determined by dividing the luciferase activity by the β-galactosidase activity. To determine the influence of estrogen receptor's major coactivator in breast cancer, AIB1, for the compounds' estrogenic activity, the expression vector of AIB1 was additionally cotransfected with the plasmids mentioned above.

MCF-7 cells = experiment: hERα positive breast cancer cell proliferation assay; type: cell-based, human; settings: for activity at 5 µM: Homo sapiens, MCF7, 72 h, MCF-7 cells, DMSO = 1, read-out: Relative Cancer Cell Proliferation Effects at 5 μM
Method: (§1) MCF-7 or MDA-MB-231 cells were inoculated into 12-well culture plates at 10000 cells in 2 ml maintained medium per well. Cells were allowed to attach to the bottom for 24 hrs incubation, then the seeding medium was removed and replaced by the experimental medium (phenol red-free DMEM supplemented with 5% charcoal-stripped fetal bovine serum and Penicillin (100 unit/ml)/Streptomycin ([…])). After 24 hr incubation, the test molecules dissolved in DMSO were added in the wells. […] The culture was continued for 3 days and the medium and tested compounds were replaced every two days. The final cell numbers were estimated with CellTiter proliferation assay kit (Promega, Madison, Wis.) by measuring the absorbance at 570 nm, which is directly proportional to the number of living cells in the culture.
MCF-7 cell line was used to perform this assay and the description of this assay as mentioned above. […] DMSO was used as reference.

MDA-MB-231 cells = experiment: hER negative breast cancer cell proliferation assay; type: cell-based, human; settings: hER negative cell line
Method: as §1
In this assay, MDA-MB-231 breast cancer cell line, a hER negative cell line, was used. DMSO was used as reference.

| SMILES | Relative Binding Affinity (hER) | Relative Estrogenic Activity (hERα) | antiestrogenic activity against various concentrations of estrogen (FIG. 4) (hERα; MCF-7 cells, hERα) | estrogenic effect (hERα; MCF-7 cells, hERα) | Relative Antiestrogenic Activity at 2.5 μM (hERα) | activity at 5 µM (MCF-7 cells) [%] | inhibition effects against MCF-7 cell proliferation (MCF-7 cells) | antiestrogenic / inhibition activity (hERα; against 1 nM estrogen) | stimulation of growth of DMSO-treated MCF-7 cells (MCF-7 cells; 2 nM estrogen) [%] | proliferation effects against MDA-MB-231 cells (FIG. 6, words) (MDA-MB-231 cells) | inhibition of MCF-7 cell proliferation (MCF-7 cells; relative to DMSO) [%] |
| --- | --- | --- | --- | --- | --- | --- | --- | --- | --- | --- | --- |
| CCCCNC(=O)CCCCCCCCCCOCC1Cc2ccccc2CN1C(=O)c1ccccc1F (stereo not shown) [Compound 1] | 0.225 | 1.02 | can antagonize estrogen's action in a dose dependent manner | do not exert any estrogenic effects | 1.17 | 106 | – | – | – | – | – |
| CCCCNC(=O)CCCCCCCCCCOCC1Cc2ccccc2CN1C(=O)c1ccc(F)cc1 (stereo not shown) [Compound 3] | 0.264 | 1.09 | – | do not exert any estrogenic effects | 0.93 | 91 | slight inhibition effects | – | – | – | – |
| CCCCNC(=O)CCCCCCCCCCOCC1Cc2ccccc2CN1C(=O)c1ccc(OC)cc1 (stereo not shown) [Compound 5] | 0.14 | 1.06 | – | do not exert any estrogenic effects | 1.64 | 98 | – | – | – | – | – |
| CCCCNC(=O)CCCCCCCCCCOCC1Cc2ccccc2CN1C(=O)c1cccc(C)c1 (stereo not shown) [Compound 8, 11-[2-(3-Methyl-benzoyl)-1,2,3,4tetrahydro-isoquinolin-3-ylmethoxy]-undecanoic acid butylanide] | 0.156 | 1.32 | – | – | 0.75 | 84 | slight inhibition effects | moderate antiestrogenic effect | – | – | – |
| CCCCNC(=O)CCCCCCCCCCOCC1Cc2ccccc2CN1C(=O)c1ccc(C)cc1 (stereo not shown) [Compound 9, 11-[2-(4-Methyl-benzoyl)-1,2,3,4-tetrahydro-isoquinolin-3-ylmethoxy]-undecanoic acid butylamide] | 0.132 | 1.72 | – | – | 1.34 | 101 | – | – | – | – | – |
| CCCCNC(=O)CCCCCCCCCCOCC1Cc2ccccc2CN1C(=O)c1cccc(Cl)c1 (stereo not shown) [Compound 10, 11-[2-(3-Chloro-benzoyl)-1,2,3,4tetrahydro-isoquinolin-3-ylmethoxy]-undecanoic acid butylamide] | 0.156 | 0.68 | – | do not exert any estrogenic effects | 0.83 | 86 | slight inhibition effects | – | – | – | – |
| CCCCCCCCNC(=O)CCCCCCCCCCOCC1Cc2ccccc2CN1C(=O)c1cccc(F)c1 (stereo not shown) [Compound 11, 11-[2-(3-Fluoro-benzoyl)-1,2,3,4-tetrahydro-isoquinolin-3-ylmethoxy]-undecanoic acid octylamide] | 0.177 | 0.83 | – | do not exert any estrogenic effects | 1.11 | 100 | – | – | – | – | – |
| CCCCNC(=O)CCCCCCCCCCOCC1Cc2ccccc2CN1C(=O)Cc1cccc(F)c1 (stereo not shown) [Compound 12, 11-{2-[2-(3-Fluoro-phenyl)-acetyl]-1,2,3,4-tetrahydro-isoquinolin-3-ylmethoxy]-undecanoic acid butylamide] | 0.267 | 1.68 | – | – | 1.01 | 120 | – | – | – | – | – |
| C[C@]12CC[C@@H]3c4ccc(O)cc4CC[C@H]3[C@@H]1CC[C@@H]2O [Compound E2, estradiol, reference compound] | – | – | – | – | – | – | – | – | 150 | – | – |
| CC/C(=C(\c1ccccc1)c1ccc(OCCN(C)C)cc1)c1ccccc1 [Tamoxifen, reference compound] | – | – | – | – | – | 42 | – | – | – | moderate anti-proliferation effects | 58 |
